Experimental data as given in patent publication EP4711361A1, “NITROGEN-CONTAINING HETEROCYCLIC COMPOUND AND USE THEREOF” (Jiangsu Deyuan Pharmaceutical Co.,Ltd., priority 2023, dated 2024).

How the values were obtained:
[1] = Permeability test (MDR1-MDCKII monolayer, bidirectional transport); assay type: in vitro ADME; settings: dog; for efflux ratio at 2.5 h, 2 µM: MDCK-MDR1, pH 7.4, ER = Papp (BA)/ Papp (AB); for Papp A→B at 2.5 h, 2 µM: MDCK-MDR1, pH 7.4, pH 7.40, 2.5 hours, A to B, read-out: Apparent permeability coefficient (Papp (AB), 10^-6 cm/s)
Protocol: (§1) Experimental objective: The permeability and efflux ratio of the compound of the present disclosure were determined using the MDR1-MDCKII monolayer cell model to assess its membrane permeability and potential for P-gp-mediated efflux transport.
(§2) Experimental protocol: MDR1-MDCKII cells (obtained from the Netherlands Cancer Institute) were seeded in 96-well plates (obtained from Corning) at a cell density of 3.33 × 10^5 cells/mL and cultured for 4 to 7 days to form confluent cell monolayers. Hank's balanced salt solution containing 10 mM HEPES (pH 7.40) was used as the transport buffer. The test compound was evaluated for bidirectional transport at a concentration of 2 µM, with the DMSO concentration in the incubation system maintained below 1%. After adding the samples, the cell plate was incubated at 37±1°C, 5% CO2, and saturated humidity for 2.5 hours. All samples were quantitatively analyzed using the LC-MS/MS method. The apparent permeability coefficient (Papp, cm/s) and efflux ratio (ER) were calculated using the following formula. Apparent permeability coefficient (Papp, cm/s) was calculated using the following formula: Papp = (dCr/dt) x Vr / (A x C0). Herein, dCr/dt represents the cumulative concentration of the compound at the receiving end per unit time (µM/s); Vr is the volume of the solution at the receiving end (with solution volumes at the apical and basolateral ends being 0.075 mL and 0.250 mL, respectively); A is the relative surface area of the cell monolayer (0.143 cm^2); C0 is the initial concentration of the test substance at the dosing end (µM) or the peak area ratio of the reference substance. The efflux ratio was calculated using the following formula: ER = Papp (BA)/ Papp (AB). Table 7: Permeability test results of compounds

[2] = in vivo; settings: rat, po, 2 mg/kg
[3] = in vivo; settings: cynomolgus monkey, po, 1 mg/kg
[4] = in vitro; settings: human, plasma
[5] = tested on: MDR1-MDCKII cells; assay: Permeability test (MDR1-MDCKII monolayer, bidirectional transport); assay type: in vitro ADME; settings: 2 µM
Protocol: as §1, §2

[6] = In vivo pharmacokinetics study in rats; settings: male SD rats, oral 2 mg/kg
[7] = In vitro liver microsome metabolic stability study; settings: human liver microsomes 0.5 mg/mL, 1 µM compound, up to 60 minutes
[8] = In vivo pharmacokinetic study in cynomolgus monkeys; settings: male cynomolgus monkeys, oral 3 mg/kg
[9] = Plasma protein binding rate test (equilibrium dialysis), human plasma; settings: 2 µM, equilibrium dialysis 4 hours, 37°C
[10] = Plasma protein binding rate test (equilibrium dialysis), SD rat plasma; settings: 2 µM, equilibrium dialysis 4 hours, 37°C
[11] = Plasma protein binding rate test (equilibrium dialysis), cynomolgus monkey plasma; settings: 2 µM, equilibrium dialysis 4 hours, 37°C

Row | Compound | efflux ratio at 2.5 h, 2 µM [1] | Papp A→B at 2.5 h, 2 µM [1] | AUC(0-t) at 24 h [2] | Cmax [2] | bioavailability [2] | half-life [2] | AUC(0-t) at 24 h [3] | Cmax [3] | bioavailability [3] | half-life [3] | fraction unbound at 4 h, 2 µM [4] | also measured
1 | CCC(=O)NC1CCCc2c(-c3cc4c(s3)N(C)C(=O)CC4)cncc21 (single isomer, unassigned) [Compound 017] | 0.95 | 23.2 ×10⁻⁶ cm/s | 8.13 µM·h | 4.17 µM | 115% | 1.34 h | 7.29 µM·h | 1.07 µM | 66% | 5.3 h | 0.173 | 
2 | CCC(=O)N[C@@H]1CCCc2c(-c3ccc4c(ccc(=O)n4C)c3)cncc21 (single isomer, unassigned) [Compound 001] |  |  |  |  |  |  |  |  |  |  |  | Efflux ratio (ER) ([5]; ER = Papp (BA)/ Papp (AB), 150 min): 1.76; Apparent permeability coefficient (Papp (AB), 10^-6 cm/s) ([5]; pH 7.40, 2.5 hours, A to B): 17.2 10^-6 cm/s; F (%) [6]: 80%; AUC0-24h ([6]; plasma): 59.097 µM·h; Cmax ([6]; plasma): 7.63 µM; T1/2 ([6]; plasma): 4.61 h; Intrinsic hepatic clearance CLint(liver) [7]: <8.6 mL/min/kg; F (%) [8]: 120%; AUC0-24h ([8]; plasma): 23.174 µM·h; Cmax ([8]; plasma): 4 µM; T1/2 ([8]; plasma): 4.99 h; Human plasma protein binding rate (%) [9]: 76.1%; Plasma protein binding rate (%) in SD rats [10]: 92.1%; Plasma protein binding rate (%) in cynomolgus monkeys [11]: 74.6%
3 | CCC(=O)NC1CCCc2c(-c3cc4ccc(=O)n(C)c4s3)cncc21 (single isomer, unassigned) [Compound 023] | 1.28 | 20.8 ×10⁻⁶ cm/s | 44.2 µM·h | 6.92 µM | 109% | 3.6 h | 8.92 µM·h | 1.32 µM | 76.5% | 4.8 h | 0.304 | 
